Assay [1] deals with E3 ubiquitin-protein ligase Mdm2 (Homo sapiens, UniProt Q00987). The assay is described as follows: MDM2-luc reporter signal enhancers, multi-concentration potency testing, MDM2 ubiquitin-protein ligase inhibitor program, whole-cell format, luminescence detection, 384-well microplate (AID 1394).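 Also: MDM2 E3 inhibitors raise luminescence so EC50 is for signal enhancement.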 Type of assay: functional.
The target of assay [2] is T1, Heat shock factor protein 1 (Mus musculus, UniProt P38532).
T1 sequence (P38532 whole entry): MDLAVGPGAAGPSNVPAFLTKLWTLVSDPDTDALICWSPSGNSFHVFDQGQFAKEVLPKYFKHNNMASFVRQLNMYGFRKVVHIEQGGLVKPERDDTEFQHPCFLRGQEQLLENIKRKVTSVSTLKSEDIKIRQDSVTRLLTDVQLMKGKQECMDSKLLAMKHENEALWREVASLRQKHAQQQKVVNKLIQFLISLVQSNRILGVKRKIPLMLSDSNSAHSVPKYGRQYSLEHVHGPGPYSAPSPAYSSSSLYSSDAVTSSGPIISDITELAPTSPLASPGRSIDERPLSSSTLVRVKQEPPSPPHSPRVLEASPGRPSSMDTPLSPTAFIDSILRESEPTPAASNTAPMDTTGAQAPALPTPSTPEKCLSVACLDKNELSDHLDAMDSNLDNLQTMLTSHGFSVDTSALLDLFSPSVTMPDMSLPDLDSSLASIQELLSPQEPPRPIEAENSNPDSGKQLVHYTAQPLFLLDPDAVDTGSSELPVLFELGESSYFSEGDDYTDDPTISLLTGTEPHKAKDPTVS
Kind of assay: decrease of HSF1-responsive luciferase luminescence – cell-based, NIH3T3, dose retest, confirmation (AID 2382).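 Also: NIH3T3 fibroblasts with HSF1-driven luciferase reporter stressed by proteasome inhibitor MG132; luminescence from HSF1-driven luciferase expression after 8 hours of MG132 stress.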 The class given is functional.

The next assay has as its system Vero. The assay is described as follows: cells. The class given is functional. The following applies: Chlorocebus sabaeus.
The target of a further assay is Paired box protein Pax-8 (Homo sapiens, UniProt Q06710). The assay is described as follows: PAX8 transcriptional activity inhibition in RMG-I – RMG-I cells, luciferase, cherry-pick, dose response (AID 687027).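 Also: luciferase reporter driven by Pax8 target thyroperoxidase promoter measured by SteadyGlo luminescence.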 Type of assay: functional, cell-based.
Paired box protein Pax-8, sequence (Q06710 whole entry): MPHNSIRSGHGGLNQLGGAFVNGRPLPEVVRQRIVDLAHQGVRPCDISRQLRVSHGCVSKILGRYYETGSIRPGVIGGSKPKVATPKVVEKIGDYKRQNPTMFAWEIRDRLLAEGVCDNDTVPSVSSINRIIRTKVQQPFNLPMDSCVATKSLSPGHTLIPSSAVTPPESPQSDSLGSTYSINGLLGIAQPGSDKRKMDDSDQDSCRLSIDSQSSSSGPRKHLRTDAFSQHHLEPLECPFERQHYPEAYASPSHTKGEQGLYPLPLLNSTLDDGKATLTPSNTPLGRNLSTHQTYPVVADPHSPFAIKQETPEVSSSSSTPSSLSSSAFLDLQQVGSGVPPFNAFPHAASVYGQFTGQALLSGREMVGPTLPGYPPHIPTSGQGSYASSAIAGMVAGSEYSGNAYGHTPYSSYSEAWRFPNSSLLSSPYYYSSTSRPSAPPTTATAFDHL
The target of assay [3] is T2, Tyrosine-protein phosphatase non-receptor type 7 (Homo sapiens, UniProt P35236).
T2 sequence (P35236 whole entry): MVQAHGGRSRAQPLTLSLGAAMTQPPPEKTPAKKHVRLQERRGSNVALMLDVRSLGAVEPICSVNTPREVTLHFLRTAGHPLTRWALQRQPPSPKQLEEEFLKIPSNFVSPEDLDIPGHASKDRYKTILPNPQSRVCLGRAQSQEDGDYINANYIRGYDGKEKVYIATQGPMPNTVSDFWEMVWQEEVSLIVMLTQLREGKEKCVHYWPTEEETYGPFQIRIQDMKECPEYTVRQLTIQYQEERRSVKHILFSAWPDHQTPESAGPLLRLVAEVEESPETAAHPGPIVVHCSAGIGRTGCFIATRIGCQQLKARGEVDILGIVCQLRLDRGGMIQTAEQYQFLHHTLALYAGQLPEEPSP
The assay is described as follows: HePTP tyrosine phosphatase activity blockers – biochemical, absorbance, leukemia target, primary screen (AID 521). The class given is functional.

The next assay concerns the target T3, Aminopeptidase N (Plasmodium falciparum FcB1/Columbia, UniProt O96935).
T3 sequence (O96935 whole entry): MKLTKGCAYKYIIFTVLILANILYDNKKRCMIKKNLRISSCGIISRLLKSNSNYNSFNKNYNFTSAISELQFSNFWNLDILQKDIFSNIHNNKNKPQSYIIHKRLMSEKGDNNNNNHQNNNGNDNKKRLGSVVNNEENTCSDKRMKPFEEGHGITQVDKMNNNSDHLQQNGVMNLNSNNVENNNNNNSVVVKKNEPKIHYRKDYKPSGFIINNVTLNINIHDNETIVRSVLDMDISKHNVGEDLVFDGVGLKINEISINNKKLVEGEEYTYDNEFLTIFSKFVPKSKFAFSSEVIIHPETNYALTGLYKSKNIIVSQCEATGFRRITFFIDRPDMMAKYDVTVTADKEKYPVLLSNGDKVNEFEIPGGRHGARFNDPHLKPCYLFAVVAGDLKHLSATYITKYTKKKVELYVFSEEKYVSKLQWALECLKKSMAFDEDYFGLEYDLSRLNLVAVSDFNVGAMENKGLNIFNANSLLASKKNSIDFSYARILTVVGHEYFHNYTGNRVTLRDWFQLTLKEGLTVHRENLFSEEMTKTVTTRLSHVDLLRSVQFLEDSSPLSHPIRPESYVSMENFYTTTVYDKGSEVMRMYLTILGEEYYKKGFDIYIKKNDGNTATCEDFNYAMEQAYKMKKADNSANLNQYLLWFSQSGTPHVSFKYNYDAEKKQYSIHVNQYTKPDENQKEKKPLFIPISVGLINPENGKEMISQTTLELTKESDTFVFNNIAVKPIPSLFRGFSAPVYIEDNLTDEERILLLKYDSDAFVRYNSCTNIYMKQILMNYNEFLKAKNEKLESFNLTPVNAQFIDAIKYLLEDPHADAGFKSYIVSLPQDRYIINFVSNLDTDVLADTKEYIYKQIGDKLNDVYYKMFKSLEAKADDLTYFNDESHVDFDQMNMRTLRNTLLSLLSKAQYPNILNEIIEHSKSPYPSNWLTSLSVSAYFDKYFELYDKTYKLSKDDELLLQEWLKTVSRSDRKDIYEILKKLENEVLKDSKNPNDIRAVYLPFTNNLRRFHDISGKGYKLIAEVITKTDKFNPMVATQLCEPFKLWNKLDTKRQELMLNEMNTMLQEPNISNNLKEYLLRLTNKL
The assay is described as follows: malaria alanyl aminopeptidase activity blockers – biochemical, fluorogenic H-Leu-NHMec substrate, 1536-well (AID 1445). Details: species or system Plasmodium falciparum 3D7, 3D7.

The next assay has as its target Large T antigen (Simian virus 40, UniProt P03070). The class given is functional, Betapolyomavirus macacae.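 Also: Confirmatory-stage PubChem screen for compounds that inhibit SV40 T antigen.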
Assay [4] has as its target E3 ubiquitin-protein ligase XIAP (Homo sapiens, UniProt P98170). The assay is described as follows: Counter Screen using XIAP-Bir3 for Chemical Antagonists of Bir1/2 domains of IAP-family anti-apoptotic proteins. [Related pubchem assays (depositor defined):AID1018, AID1449, AID1514, AID1638, AID1749, AID1750, AID488957, AID488963]. For orientation: Counterscreens check selectivity or assay interference.

Assay [5] addresses Bifunctional protein GlmU (Mycobacterium tuberculosis, UniProt P9WMN3). Kind of assay: Inhibitors of Mycobacterial Glucosamine-1-phosphate acetyl transferase (GlmU). Secondary screen. Further details: species or system Mycobacterium tuberculosis H37Rv.
Another assay has as its target Keap1/Nrf2 (Homo sapiens, UniProt Q14145). Kind of assay: disruptors of Keap1 binding to Nrf2 peptide – biochemical, fluorescence polarization, cherry-picked samples, dose response (AID 588683). (Polarisation of emitted light reports the rotation of a fluorescent probe.)
A further assay has as its target Genome polyprotein (dengue virus type 2, UniProt P29990). Kind of assay: flavivirus cap methylation enzyme inhibition – biochemical, confirmation dose response, primary screen (AID 588689). The class given is functional.
Assay [6] has as its target T4, Histone-lysine N-methyltransferase NSD2 (Homo sapiens, UniProt O96028).
T4 sequence (O96028 whole entry): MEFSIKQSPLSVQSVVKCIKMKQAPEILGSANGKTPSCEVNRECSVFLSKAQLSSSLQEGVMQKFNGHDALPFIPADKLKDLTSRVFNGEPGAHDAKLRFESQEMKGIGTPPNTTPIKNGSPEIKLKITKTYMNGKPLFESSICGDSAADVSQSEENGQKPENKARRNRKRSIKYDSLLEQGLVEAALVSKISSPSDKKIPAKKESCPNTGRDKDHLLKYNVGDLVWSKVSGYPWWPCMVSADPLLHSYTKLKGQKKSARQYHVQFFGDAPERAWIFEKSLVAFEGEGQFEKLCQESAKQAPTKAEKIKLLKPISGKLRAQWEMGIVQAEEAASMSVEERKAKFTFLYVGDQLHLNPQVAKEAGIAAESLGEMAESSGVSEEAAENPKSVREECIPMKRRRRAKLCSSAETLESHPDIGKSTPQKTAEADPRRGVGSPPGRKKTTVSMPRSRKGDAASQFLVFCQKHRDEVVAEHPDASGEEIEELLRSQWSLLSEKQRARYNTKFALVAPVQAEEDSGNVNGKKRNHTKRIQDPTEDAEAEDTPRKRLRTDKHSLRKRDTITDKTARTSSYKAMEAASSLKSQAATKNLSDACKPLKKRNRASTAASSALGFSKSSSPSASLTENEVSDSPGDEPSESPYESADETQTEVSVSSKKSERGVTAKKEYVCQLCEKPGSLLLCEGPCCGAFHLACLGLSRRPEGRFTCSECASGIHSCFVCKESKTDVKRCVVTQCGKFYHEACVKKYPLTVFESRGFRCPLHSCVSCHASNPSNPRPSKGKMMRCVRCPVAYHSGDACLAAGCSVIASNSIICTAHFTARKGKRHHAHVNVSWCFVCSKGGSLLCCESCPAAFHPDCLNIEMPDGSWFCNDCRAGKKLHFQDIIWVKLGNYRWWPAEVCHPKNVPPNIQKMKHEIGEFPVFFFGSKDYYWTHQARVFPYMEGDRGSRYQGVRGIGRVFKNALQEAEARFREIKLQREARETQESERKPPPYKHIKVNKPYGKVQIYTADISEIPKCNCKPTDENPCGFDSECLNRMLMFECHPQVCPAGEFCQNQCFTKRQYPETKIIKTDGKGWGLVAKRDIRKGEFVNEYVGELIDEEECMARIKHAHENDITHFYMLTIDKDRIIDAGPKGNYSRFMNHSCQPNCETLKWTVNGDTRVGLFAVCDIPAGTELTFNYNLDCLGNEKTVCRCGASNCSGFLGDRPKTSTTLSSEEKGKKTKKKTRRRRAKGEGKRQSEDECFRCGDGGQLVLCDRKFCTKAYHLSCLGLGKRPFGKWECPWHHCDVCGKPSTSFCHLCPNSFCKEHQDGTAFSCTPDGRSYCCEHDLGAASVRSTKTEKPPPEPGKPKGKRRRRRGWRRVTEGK
Type of assay: biochemical.

One may read the EC50 as the concentration giving half of the maximal effect. A word on the CC50: it is the concentration that lowers cell viability or growth by half. In general, AC50 refers to the concentration giving half of the maximal activity seen. For orientation: IC50 means the midpoint of a concentration-inhibition curve.

Calls of active or inactive are those of the source.

Bifunctional protein GlmU, sequence (P9WMN3 whole entry): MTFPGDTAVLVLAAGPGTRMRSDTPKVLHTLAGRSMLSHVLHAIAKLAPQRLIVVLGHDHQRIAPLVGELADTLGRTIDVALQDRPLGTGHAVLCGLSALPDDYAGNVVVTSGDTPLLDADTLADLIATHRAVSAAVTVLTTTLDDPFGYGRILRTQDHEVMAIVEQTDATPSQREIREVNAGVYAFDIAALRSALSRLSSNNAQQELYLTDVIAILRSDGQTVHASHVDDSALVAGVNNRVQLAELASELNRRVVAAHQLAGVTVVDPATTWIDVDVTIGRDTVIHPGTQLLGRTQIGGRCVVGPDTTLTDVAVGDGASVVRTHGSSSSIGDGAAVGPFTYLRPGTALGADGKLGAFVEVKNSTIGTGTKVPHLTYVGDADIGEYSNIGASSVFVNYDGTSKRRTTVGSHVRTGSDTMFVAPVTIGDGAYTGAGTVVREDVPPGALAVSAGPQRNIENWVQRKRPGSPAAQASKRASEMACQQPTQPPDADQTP
E3 ubiquitin-protein ligase XIAP, sequence (P98170 whole entry): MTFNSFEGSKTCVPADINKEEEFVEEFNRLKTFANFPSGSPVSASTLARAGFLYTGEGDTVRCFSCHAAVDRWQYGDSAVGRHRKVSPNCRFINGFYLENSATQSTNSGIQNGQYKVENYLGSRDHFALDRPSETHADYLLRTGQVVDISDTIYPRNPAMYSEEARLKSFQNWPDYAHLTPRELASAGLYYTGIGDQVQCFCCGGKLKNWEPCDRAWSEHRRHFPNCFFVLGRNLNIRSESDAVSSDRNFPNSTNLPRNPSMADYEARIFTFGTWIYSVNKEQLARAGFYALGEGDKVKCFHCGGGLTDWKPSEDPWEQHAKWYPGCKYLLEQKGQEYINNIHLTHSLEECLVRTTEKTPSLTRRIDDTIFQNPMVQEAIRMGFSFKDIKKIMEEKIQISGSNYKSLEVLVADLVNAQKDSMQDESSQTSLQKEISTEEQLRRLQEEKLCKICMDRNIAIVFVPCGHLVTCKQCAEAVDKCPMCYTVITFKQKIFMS
Large T antigen, sequence (P03070 whole entry): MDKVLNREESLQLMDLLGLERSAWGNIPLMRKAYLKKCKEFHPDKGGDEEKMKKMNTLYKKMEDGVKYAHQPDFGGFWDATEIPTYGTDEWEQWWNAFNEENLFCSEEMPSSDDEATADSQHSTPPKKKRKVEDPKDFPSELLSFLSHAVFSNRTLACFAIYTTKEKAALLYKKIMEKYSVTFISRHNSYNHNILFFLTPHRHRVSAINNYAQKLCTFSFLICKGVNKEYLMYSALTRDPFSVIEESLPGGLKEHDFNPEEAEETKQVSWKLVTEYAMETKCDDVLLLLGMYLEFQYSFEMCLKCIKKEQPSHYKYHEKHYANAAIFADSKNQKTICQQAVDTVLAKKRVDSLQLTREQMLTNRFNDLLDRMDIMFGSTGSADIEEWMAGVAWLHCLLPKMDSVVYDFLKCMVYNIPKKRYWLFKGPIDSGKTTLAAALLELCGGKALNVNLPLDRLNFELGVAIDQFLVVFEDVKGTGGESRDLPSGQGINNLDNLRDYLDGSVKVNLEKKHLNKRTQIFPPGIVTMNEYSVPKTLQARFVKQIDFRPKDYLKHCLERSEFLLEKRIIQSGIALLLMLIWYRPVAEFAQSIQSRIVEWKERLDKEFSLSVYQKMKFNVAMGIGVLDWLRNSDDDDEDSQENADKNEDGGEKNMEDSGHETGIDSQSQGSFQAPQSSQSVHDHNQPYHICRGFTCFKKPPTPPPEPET
Keap1/Nrf2, sequence (Q16236 whole entry): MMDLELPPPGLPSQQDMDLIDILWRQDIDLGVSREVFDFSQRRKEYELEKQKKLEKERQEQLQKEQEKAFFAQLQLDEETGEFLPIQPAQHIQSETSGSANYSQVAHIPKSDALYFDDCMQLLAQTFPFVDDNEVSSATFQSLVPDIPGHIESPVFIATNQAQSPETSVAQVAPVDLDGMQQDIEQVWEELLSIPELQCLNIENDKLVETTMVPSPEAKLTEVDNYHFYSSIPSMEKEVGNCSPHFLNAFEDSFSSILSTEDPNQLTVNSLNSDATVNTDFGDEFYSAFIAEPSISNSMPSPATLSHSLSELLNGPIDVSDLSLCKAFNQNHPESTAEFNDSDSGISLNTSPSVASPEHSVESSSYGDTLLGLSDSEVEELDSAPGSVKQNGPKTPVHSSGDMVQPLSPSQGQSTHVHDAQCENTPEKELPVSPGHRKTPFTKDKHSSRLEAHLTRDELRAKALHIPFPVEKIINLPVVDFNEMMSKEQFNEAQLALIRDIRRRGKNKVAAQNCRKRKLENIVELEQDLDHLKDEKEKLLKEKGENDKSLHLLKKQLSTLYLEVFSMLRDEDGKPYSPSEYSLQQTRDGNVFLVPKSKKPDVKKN
Keap1/Nrf2, sequence (Q14145 whole entry): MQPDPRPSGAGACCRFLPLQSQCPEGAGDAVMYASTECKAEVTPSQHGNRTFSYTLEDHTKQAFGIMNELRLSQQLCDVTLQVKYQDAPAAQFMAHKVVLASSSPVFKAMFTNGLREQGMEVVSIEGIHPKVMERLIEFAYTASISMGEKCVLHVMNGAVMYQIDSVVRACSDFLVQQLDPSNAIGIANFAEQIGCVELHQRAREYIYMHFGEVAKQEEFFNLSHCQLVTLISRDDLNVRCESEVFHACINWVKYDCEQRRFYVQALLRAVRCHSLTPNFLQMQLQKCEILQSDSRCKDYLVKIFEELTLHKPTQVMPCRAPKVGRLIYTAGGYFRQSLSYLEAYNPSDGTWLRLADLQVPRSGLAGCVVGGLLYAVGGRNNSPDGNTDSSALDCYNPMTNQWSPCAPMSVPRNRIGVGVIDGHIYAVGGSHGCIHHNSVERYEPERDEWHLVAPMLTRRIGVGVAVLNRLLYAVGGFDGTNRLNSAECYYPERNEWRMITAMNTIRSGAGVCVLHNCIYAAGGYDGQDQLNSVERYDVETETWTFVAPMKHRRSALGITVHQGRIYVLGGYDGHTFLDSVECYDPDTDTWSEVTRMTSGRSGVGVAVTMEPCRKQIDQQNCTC
E3 ubiquitin-protein ligase Mdm2, sequence (Q00987 whole entry): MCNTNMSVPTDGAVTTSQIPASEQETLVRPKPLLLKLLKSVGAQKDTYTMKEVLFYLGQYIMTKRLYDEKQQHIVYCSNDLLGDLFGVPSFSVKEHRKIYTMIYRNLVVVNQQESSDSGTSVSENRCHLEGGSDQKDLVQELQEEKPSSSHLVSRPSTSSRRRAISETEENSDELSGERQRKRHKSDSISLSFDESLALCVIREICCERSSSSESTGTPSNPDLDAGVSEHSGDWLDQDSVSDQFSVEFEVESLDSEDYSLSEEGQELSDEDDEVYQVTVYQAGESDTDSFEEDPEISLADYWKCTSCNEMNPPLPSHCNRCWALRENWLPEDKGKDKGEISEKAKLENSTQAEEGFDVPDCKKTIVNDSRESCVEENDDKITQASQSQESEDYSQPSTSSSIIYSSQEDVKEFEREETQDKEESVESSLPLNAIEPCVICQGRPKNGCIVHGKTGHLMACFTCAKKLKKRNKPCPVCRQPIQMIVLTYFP
Genome polyprotein, sequence (P29990 2492-3391 limits assumed): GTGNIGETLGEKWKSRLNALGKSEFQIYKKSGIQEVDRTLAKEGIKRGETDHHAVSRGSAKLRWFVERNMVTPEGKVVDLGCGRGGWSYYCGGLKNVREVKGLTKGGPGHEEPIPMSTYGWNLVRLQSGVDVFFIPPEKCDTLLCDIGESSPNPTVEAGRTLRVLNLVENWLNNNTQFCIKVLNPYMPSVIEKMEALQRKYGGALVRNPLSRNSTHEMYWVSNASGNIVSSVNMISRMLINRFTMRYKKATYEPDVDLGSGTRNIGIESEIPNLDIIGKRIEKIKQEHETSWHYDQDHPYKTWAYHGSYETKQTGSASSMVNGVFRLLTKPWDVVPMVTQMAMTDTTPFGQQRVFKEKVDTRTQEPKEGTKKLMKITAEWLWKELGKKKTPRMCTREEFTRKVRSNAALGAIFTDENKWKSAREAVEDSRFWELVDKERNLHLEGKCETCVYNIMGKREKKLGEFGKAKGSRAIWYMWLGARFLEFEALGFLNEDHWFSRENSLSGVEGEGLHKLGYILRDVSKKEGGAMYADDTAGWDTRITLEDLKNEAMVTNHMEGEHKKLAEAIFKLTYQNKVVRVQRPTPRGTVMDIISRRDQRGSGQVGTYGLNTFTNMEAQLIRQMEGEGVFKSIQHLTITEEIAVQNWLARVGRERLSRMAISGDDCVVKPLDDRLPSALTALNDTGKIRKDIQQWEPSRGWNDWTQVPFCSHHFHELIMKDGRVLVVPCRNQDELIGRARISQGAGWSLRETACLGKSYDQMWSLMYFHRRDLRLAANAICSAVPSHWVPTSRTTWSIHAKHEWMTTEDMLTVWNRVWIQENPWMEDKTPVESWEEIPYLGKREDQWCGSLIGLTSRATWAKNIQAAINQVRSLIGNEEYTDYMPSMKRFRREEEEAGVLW

For `COc1cc(/C=C2\COC/C(=C\c3cc(OC)c(OC)c(OC)c3)C2=O)cc(OC)c1OC`, the half-maximal effective concentration (EC50) in [1] was 182 µM (active); in [2], > 195 µM (not active). Besides, the CC50 in the assay on Vero was 2.07 µM (active). Besides, the AC50 on Paired box protein Pax-8 is 1.56 µM (active).

Regarding `O=C(NCc1cccc(C(F)(F)F)c1)C1CCCN(c2ncccn2)C1` (configuration not stated), the IC50 in assay [3] is given as > 100 µM (not active).

Take `CC1=C(C#N)c2nc(N)c(C#N)c(C)c2/C1=C\c1ccc(-c2ccccc2C(=O)O)o1`: the IC50 was 52.2 µM (active) at Aminopeptidase N; 86.6 µM (active) at Large T antigen; > 20 µM (inactive) in assay [4]; 70.3 µM (active) in [5]; 27.2 µM (active) on Genome polyprotein. Also, the AC50 on Keap1/Nrf2 is 15.3 µM (active); in assay [6], > 20 µM (inactive).

For the origin of these results see ChEMBL document CHEMBL1201862, “PubChem BioAssay data set” (2004).
